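Following 48 hours of exposure in 96-well plates, responses at five concentrations were used to interpolate endpoints linearly. Here, GI50 denotes the concentration required for 50% inhibition of growth. TGI: total growth inhibition.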
What was measured:
Assay in all cases: growth of human tumour cells (NCI), 48 h
786-0 renal = tested on: 786-0 renal
A498 renal = tested on: A498 renal
A549 NSCLC = tested on: A549 NSCLC
ACHN renal = tested on: ACHN renal
DU-145 prostate = tested on: DU-145 prostate
HT29 colon = tested on: HT29 colon
MDA-MB-231 breast = tested on: MDA-MB-231 breast
MDA-MB-435 = tested on: MDA-MB-435
NCI/ADR-RES ovarian = tested on: NCI/ADR-RES ovarian
OVCAR-5 ovarian = tested on: OVCAR-5 ovarian
PC-3 prostate = tested on: PC-3 prostate
SK-MEL-28 melanoma = tested on: SK-MEL-28 melanoma
SK-MEL-5 melanoma = tested on: SK-MEL-5 melanoma
SK-OV-3 ovarian = tested on: SK-OV-3 ovarian
SW-620 colon = tested on: SW-620 colon
TK-10 renal = tested on: TK-10 renal
UACC-257 melanoma = tested on: UACC-257 melanoma
UACC-62 melanoma = tested on: UACC-62 melanoma
UO-31 renal = tested on: UO-31 renal

SMILES: CCCc1n(Cc2ccc3ccccc3c2)c2ccccc2[n+]1Cc1ccc2ccccc2c1
- GI50 (786-0 renal): 1060 nM
- TGI (786-0 renal): 2560 nM
- GI50 (A498 renal): 356 nM
- TGI (A498 renal): 1980 nM
- GI50 (A549 NSCLC): 619 nM
- TGI (A549 NSCLC): 2040 nM
- GI50 (ACHN renal): 1250 nM
- TGI (ACHN renal): 2570 nM
- GI50 (DU-145 prostate): 554 nM
- TGI (DU-145 prostate): 1850 nM
- GI50 (HT29 colon): 323 nM
- TGI (HT29 colon): 1280 nM
- GI50 (MDA-MB-231 breast): 301 nM
- TGI (MDA-MB-231 breast): 1420 nM
- GI50 (MDA-MB-435): 314 nM
- TGI (MDA-MB-435): 1260 nM
- GI50 (NCI/ADR-RES ovarian): 3560 nM
- TGI (NCI/ADR-RES ovarian): 53900 nM
- GI50 (OVCAR-5 ovarian): 544 nM
- TGI (OVCAR-5 ovarian): 1980 nM
- GI50 (PC-3 prostate): 354 nM
- TGI (PC-3 prostate): 1550 nM
- GI50 (SK-MEL-28 melanoma): 577 nM
- TGI (SK-MEL-28 melanoma): 1990 nM
- GI50 (SK-MEL-5 melanoma): 161 nM
- TGI (SK-MEL-5 melanoma): 311 nM
- GI50 (SK-OV-3 ovarian): 488 nM
- TGI (SK-OV-3 ovarian): 1740 nM
- GI50 (SW-620 colon): 429 nM
- TGI (SW-620 colon): 1700 nM
- GI50 (TK-10 renal): 461 nM
- TGI (TK-10 renal): 1680 nM
- GI50 (UACC-257 melanoma): 295 nM
- TGI (UACC-257 melanoma): 1120 nM
- GI50 (UACC-62 melanoma): 318 nM
- TGI (UACC-62 melanoma): 1420 nM
- GI50 (UO-31 renal): 1490 nM
- TGI (UO-31 renal): 3000 nM

Source: PubChem BioAssay (NCI)
